In patent US20060106028A1, “Polycyclic aromatics and derivatives thereof and processes for their preparation” (priority 2004, published 2006) one finds MIC, GI50 and Antibacterial activity data, which are given here for three compounds.

Type in all cases: cell-based
In experiment [1] the test system is Staphylococcus aureus (ATCC™ 6538P). Nature of the experiment: Antibacterial activity, MIC (NCCLS M7-A5). The settings on record: MH medium, 35° C., 16 to 20 hours.
In experiment [2] the test system is Staphylococcus aureus MRS3 (ATCC™ 700699). As to the kind of experiment: Antibacterial activity, MIC (NCCLS M7-A5). The settings on record: MH medium, 35° C., 16 to 20 hours.
In experiment [3] the test system is Enterococcus faecalis VRE-1 (ATCC™ 29212). Nature of the experiment: Antibacterial activity, MIC (NCCLS M7-A5). The settings on record: BHI+ medium.
In experiment [4] the test system is Enterococcus faecalis VRE-2 (ATCC™ 51299). As to the kind of experiment: Antibacterial activity, MIC (NCCLS M7-A5). The settings on record: BHI+ medium, 35° C., 16 to 20 hours.
Experiment [5] has as its system Streptococcus pneumoniae (LSPQ 3412). Nature of the experiment: Antibacterial activity, MIC (NCCLS M7-A5). The settings on record: MH medium +2% lysed horse blood.
Experiment [6] relates to Streptococcus pneumoniae PenR (LSPQ 3349). Nature of the experiment: Antibacterial activity, MIC (NCCLS M7-A5). The settings on record: MH medium +2% lysed horse blood.
The test system of experiment [7] is Clostridium difficile (ATCC™ 9689). As to the kind of experiment: Antibacterial activity, MIC (NCCLS M11-A5, anaerobic). The settings on record: Clostridioides difficile. On the procedure: Antibacterial activity of Compounds 1 and 2 (Table 7) was measured by determining the minimal inhibitory concentration (MIC) necessary to obtain a complete inhibition of bacteria growth in seven indicator strains, namely Staphylococcus aureus (ATCC™ 6538P), Staphylococcus aureus MRS3 (ATCC™ 700699), Enterococcus faecalis VRE-1 (ATCC™ 29212), Enterococcus faecalis VRE-2 (ATCC™ 51299), Escherichia coli (ATCC™ 25922), Streptococcus pneumoniae (LSPQ 3412) and Streptococcus pneumoniae PenR (LSPQ 3349). Indicator strains preparation and MIC determination were performed according to the National Committee for Clinical Laboratory Standards (NCCLS) guideline M7-A5 Methods for Dilution Antimicrobial Susceptibility Tests for Bacteria That Grow Aerobically; Approved Standard-Fifth Edition. (NCCLS document M7-A5, ISBN 1-56238-394-9; NCCLS, 940 West Valley Road, Suite 1400, Wayne, Pa. 19087-1898 USA), the content of which is incorporated herein by reference. MIC determination against C. difficile was performed according to National Committee for Clinical Laboratory Standards (NCCLS) guideline M11-A5 Methods for Antimicrobial Susceptibility Testing of Anaerobic Bacteria.
Compounds 1 and 2 were prepared as 100× stock solutions in DMSO, with concentrations ranging from 3.2 mg/mL to 0.003 mg/mL (a two-fold dilution series over 11 points). An aliquot of each 100× stock solution was diluted 50-fold in test medium described below to give a set of eleven (11) 2× solutions. 50 μL of each of the eleven 2× solutions was aliquoted into the corresponding well of a 12-well row, with the final well reserved for medium alone control.
Vancomycin (Sigma™), used as positive control compound, was prepared as 2× stock solutions in Mueller-Hinton test medium ranging from 64 μg/mL to 0.06 μg/ml (a two-fold dilution series over 11 points). An aliquot of 50 μL corresponding to each concentration (at 2×) was then transferred to 96-well microplates to obtain a series of eleven two-fold dilutions.
An isolated colony of each of the indicator strains was used to inoculate tubes containing 2 mL of test medium. […]

The test system of experiment [8] is HT-29 (colorectal carcinoma). Nature of the experiment: In vitro tumor growth inhibition (GI50, propidium iodide). The settings on record: Homo sapiens, 96 hrs.
The subject of experiment [9] is MDA-MB-231 (mammary gland adenocarcinoma). Described as above. The settings on record: Homo sapiens, 96 hrs.
Experiment [10] deals with PC-3 (prostate adenocarcinoma). The experiment is described as above. The settings on record: 96 hrs.
For the next experiment, the system named is SF268 (CNS). The experiment is described as above. The settings on record: Homo sapiens; SF-268; 96 hrs.
Experiment [11] has as its system Escherichia coli (ATCC™ 25922). As to the kind of experiment: Antibacterial activity (NCCLS M7-A5). The settings on record: MH medium.
The subject of experiment [12] is Saccharomyces cerevisiae FHCRC-50014. Nature of the experiment: Antifungal activity, MIC (NCCLS M27-A). The settings on record: FHCRC50014, after 24 hours, YPD medium. On the procedure: (§1) Testing of antifungal activity was performed according to NCCLS method (NCCLS. Reference Method for Broth Dilution Antifungal Susceptibility Testing of Yeasts; Approved Standard. NCCLS document M27-A (ISBN 1-56238-328-0). NCCLS, 940 West Valley Road, Suite 1400, Wayne, Pa. 19087-1898 USA; www.nccls.org.). Compound 1 was prepared as 100× stock solutions in DMSO, with concentrations ranging from 3.2 mg/mL to 0.003 mg/mL (a two-fold dilution series over 11 points). An aliquot of each 100× stock solution was diluted 50-fold in test medium described below to give a set of eleven (11) 2× solutions. 50 μL of each of the eleven 2× solutions was aliquoted into the corresponding well of a 12-well row, with the final well reserved for medium alone control. Inoculum density for each indicator strain was adjusted to OD600=0.1 in 5 mL 0.85% saline, then further diluted 1/1000 in YPD medium. 50 μL of the final dilution (in test medium) of each indicator strain was added to each well of a 12-well row. This brings the final dilution of the test article or control compound in solution to 1×. The final inoculum was approximately 5×10^4 CFU/ml.
(§2) Bacterial strains Streptococcus pneumoniae LSPQ 3412 and LSPQ 3349 were obtained from the “Laboratoire de Sante Publique du Quebec”. Saccharomyces cerevisiae FHCRC-50014 and FHCRC-50514 were obtained from the “Fred Hutchison Cancer Research Center”.

Experiment [13] relates to Saccharomyces cerevisiae FHCRC-50514. As to the kind of experiment: Antifungal activity, MIC (NCCLS M27-A). The settings on record: FHCRC50514, after 24 hours, YPD medium. On the procedure:
as §1, §2

Values after ≈ are worked out from the molar mass of the structure shown. Like-named read-outs stand apart in the source and are kept apart here.

What is called MIC is the lowest concentration that inhibits growth of the organism. By GI50 is commonly meant the concentration that inhibits growth by half. Read a high GI50 as less potent growth inhibition.

As to `CN[C@H](CC(C)C)C(=O)N[C@H]1C(=O)N[C@@H](CC(N)=O)C(=O)N[C@H]2C(=O)N[C@H]3C(=O)N[C@H](C(=O)N[C@H](C(=O)O)c4cc(O)cc(O)c4-c4cc3ccc4O)[C@H](O)c3ccc(c(Cl)c3)Oc3cc2cc(c3O[C@@H]2O[C@H](CO)[C@@H](O)[C@H](O)[C@H]2O[C@H]2C[C@](C)(N)[C@H](O)[C@H](C)O2)Oc2ccc(cc2Cl)[C@H]1O` [Vancomycin, reference compound], the MIC in [1] turned out to be 1 µg/mL (≈ 0.69 µM); in experiment [2], 4 µg/mL (≈ 2.76 µM); in experiment [3] (35° C., 16 to 20 hours) it was 8 µg/mL (≈ 5.52 µM); in experiment [3] (when tested as control with Compound 2) it was 4 µg/mL (≈ 2.76 µM); in [4], 32 µg/mL (≈ 22.1 µM); in experiment [5], 0.5 µg/mL (≈ 0.345 µM). Also, the MIC in experiment [6] and in experiment [7] was 0.5 µg/mL (≈ 0.345 µM) each time.

Take `CCC(C)c1cc2c(=O)c3ccc4c(OC)c5c(=O)c6c(O)ccc(O)c6c(=O)c5c(O)c4c3c(=O)c2c(=O)n1CC(=O)N1CC(C(=O)OC)NC(=O)C1C` (stereo not shown) [Compound 2]: the GI50 in [8] is 16.1 µM; in experiment [9], 4.04 µM; in experiment [10], 4.61 µM; in the experiment with SF268 (CNS), 2.63 µM. The MIC in [1] came to 0.0625 µg/mL (≈ 0.0831 µM); in experiment [2], 0.125 µg/mL (≈ 0.166 µM); in experiment [3] (35° C., 16 to 20 hours) it was 1 µg/mL (≈ 1.33 µM); in [4] it was 1 µg/mL (≈ 1.33 µM); in experiment [5] it was 1 µg/mL (≈ 1.33 µM); in experiment [6] it was 1 µg/mL (≈ 1.33 µM). Also, the MIC in [7] (Brucella medium with hemin, vitamin K1 and 5% lysed horse blood, read-out: MIC) turned out to be 2 µg/mL (≈ 2.66 µM). Moreover, the Antibacterial activity entry in experiment [11] is “inactive”.

Consider `OC(Cn1cncn1)(Cn1cncn1)c1ccc(F)cc1F` [Fluconazole, reference compound], for which the results for the MIC in [12] and in [13] were 8 µg/mL (≈ 26.1 µM) and 0.25 to 0.5 µg/mL (≈ 0.816 to 1.63 µM), respectively.
